Data taken from patent publication US8552021B2, “Phosphoramidate derivatives of nucleosides” (Janssen Products, L.P., priority 2009, dated 2013).
Like-named read-outs stand apart in the source and are kept apart here.

Tests used:
Format in all cases: cell-based
[1] = test system: HCV type 1b replicon in Huh-7 luc/neo (Huh-Luc) cells; assay: HCV replicon assay (Huh-Luc luciferase); details: three days incubation, luciferase activity, average where tested more than once, read-out: EC50 1b ET
Text: The compounds of formula I are examined for activity in the inhibition of HCV RNA replication in a cellular assay. […] The cellular assay can be based on a bicistronic expression construct, as described by Lohmann et al. (1999) Science vol. 285 pp. 110-113 with modifications described by Krieger et al. (2001) Journal of Virology 75: 4614-4624, in a multi-target screening strategy. The Bartenschlager replicon assays are available commercially from ReBLikon GmbH in Mainz, Germany.
In essence, the method is as follows.
The assay utilized the stably transfected cell line Huh-7 luc/neo (hereafter referred to as Huh-Luc). This cell line harbors an RNA encoding a bicistronic expression construct comprising the wild type NS3—NS5B regions of HCV type 1b translated from an Internal Ribosome Entry Site (IRES) from encephalomyocarditis virus (EMCV), preceded by a reporter portion (FfL-luciferase), and a selectable marker portion (neo^R, neomycine phosphotransferase). The construct is bordered by 5′ and 3′ NTRs (non-translated regions) from HCV type lb. Continued culture of the replicon cells in the presence of G418 (neo^R) is dependent on the replication of the HCV RNA. The stably transfected replicon cells that express HCV RNA, which replicates autonomously and to high levels, encoding inter alia luciferase, are used for screening the antiviral compounds.
The replicon cells were plated in well plates in the presence of the test and control compounds, which were added in various concentrations. Following an incubation of three days, HCV replication was measured by assaying luciferase activity (using standard luciferase assay substrates and reagents and a Perkin Elmer ViewLux™ ultraHTS microplate imager). Replicon cells in the control cultures have high luciferase expression in the absence of any inhibitor. The inhibitory activity of the compound on luciferase activity was monitored on the Huh-Luc cells, enabling a dose-response curve for each test compound. EC50 values were then calculated, which value represents the amount of the compound required to decrease by 50% the level of detected luciferase activity, or more specifically, the ability of the genetically linked HCV replicon RNA to replicate. Where a compound of formula (I) was tested more than once in the replicon assay, the average of all test results is given in Table 1.

[2] = Cytotoxicity CC50 in Huh-7; details: human; Huh-7 cells
Text: (§1) The in vitro antiviral activity against HCV of the compounds of formula I can be tested in a cellular HCV replicon system based on Lohmann et al. (1999) Science 285:110-113, with the further modifications described by Krieger et al. (2001) Journal of Virology 75: 4614-4624 (incorporated herein by reference), which is further exemplified in the examples section. This model, while not a complete infection model for HCV, is widely accepted as the most robust and efficient model of autonomous HCV RNA replication currently available. […] It will be appreciated that it is important to distinguish between compounds that specifically interfere with HCV functions from those that exert cytotoxic or cytostatic effects in the HCV replicon model, and as a consequence cause a decrease in HCV RNA or linked reporter enzyme concentration. Assays are known in the field for the evaluation of cellular cytotoxicity based for example on the activity of mitochondrial enzymes using fluorogenic redox dyes such as resazurin. Furthermore, cellular counter screens exist for the evaluation of non-selective inhibition of linked reporter gene activity, such as firefly luciferase. Appropriate cell types can be equipped by stable transfection with a luciferase reporter gene whose expression is dependent on a constitutively active gene promoter, and such cells can be used as a counter-screen to eliminate non-selective inhibitors.

Huh-7 = assay: Cytotoxicity CC50 in Huh-7; details: Huh-7 cells
Text: as §1

SMILES	EC50 ([1]; Hepatitis C virus, Huh-7, 72 h)	CC50 [2]	EC50 [1]	CC50 (Huh-7)
CCC(NP(=O)(OC[C@@]1(N=[N+]=[N-])O[C@@H](n2ccc(=O)[nH]c2=O)[C@@H](C)[C@@H]1O)Oc1ccccc1)C(=O)OCc1ccccc1 (stereo partly shown) [Compound I-21]	29.2 µM	81.8 µM		
CCCCOC(=O)C(C)NP(=O)(OC[C@@]1(N=[N+]=[N-])O[C@@H](n2ccc(=O)[nH]c2=O)[C@@H](C)[C@@H]1O)Oc1ccccc1 (stereo partly shown) [Compound I-4]	9.33 µM	> 98.3 µM		
CCOC(=O)C(C)NP(=O)(OCC1(N=[N+]=[N-])OC(n2ccc(=O)[nH]c2=O)C(C)C1O)Oc1cc(C)c(Cl)cc1C(C)C (mixture of isomers) [Compound I-24]			37.7 µM	55 µM
CCC(NP(=O)(OC[C@@]1(N=[N+]=[N-])O[C@@H](n2ccc(=O)[nH]c2=O)[C@@H](C)[C@@H]1O)Oc1ccccc1)C(=O)OC (stereo partly shown) [Compound I-26]	74.7 µM	> 98.3 µM		
CCCC(CCC)COC(=O)C(C)NP(=O)(OCC1(N=[N+]=[N-])OC(n2ccc(=O)[nH]c2=O)C(C)C1O)Oc1ccccc1 (mixture of isomers) [Compound I-3]			8.06 µM	30.7 µM
CC(NP(=O)(OC[C@@]1(N=[N+]=[N-])O[C@@H](n2ccc(=O)[nH]c2=O)[C@@H](C)[C@@H]1O)Oc1ccccc1)C(=O)OCc1ccccc1 (stereo partly shown) [Compound I-1]	5.95 µM	> 100 µM		
CC(NP(=O)(OC[C@@]1(N=[N+]=[N-])O[C@@H](n2ccc(=O)[nH]c2=O)[C@@H](C)[C@@H]1O)Oc1ccccc1)C(=O)OC1CCCC1 (stereo partly shown) [Compound I-6]	10.5 µM	> 98.3 µM		
CCOC(=O)[C@H](C)NP(=O)(OC[C@@]1(N=[N+]=[N-])O[C@@H](n2ccc(=O)[nH]c2=O)[C@@H](C)[C@@H]1O)Oc1ccccc1 (single isomer, unassigned) [Compound I-8]			12 µM	> 98.3 µM
CCOC(=O)C(C)NP(=O)(OCC1(N=[N+]=[N-])OC(n2ccc(=O)[nH]c2=O)C(C)C1O)Oc1ccccc1 (mixture of isomers) [Compound I-16]			16.4 µM	> 98.3 µM
COC(=O)C(C)NP(=O)(OC[C@@]1(N=[N+]=[N-])O[C@@H](n2ccc(=O)[nH]c2=O)[C@@H](C)[C@@H]1O)Oc1ccccc1 (stereo partly shown) [Compound I-18]	27 µM	> 98.3 µM		
CCCCOC(=O)C(CC)NP(=O)(OC[C@@]1(N=[N+]=[N-])O[C@@H](n2ccc(=O)[nH]c2=O)[C@@H](C)[C@@H]1O)Oc1ccccc1 (stereo partly shown) [Compound I-20]	28 µM	> 73.9 µM		
CCCCCOC(=O)C(C)NP(=O)(OC[C@@]1(N=[N+]=[N-])O[C@@H](n2ccc(=O)[nH]c2=O)[C@@H](C)[C@@H]1O)Oc1ccccc1 (stereo partly shown) [Compound I-5]	9.48 µM	> 98.3 µM		
CCCCOC(=O)C(C)(C)NP(=O)(O)OC[C@@]1(N=[N+]=[N-])O[C@@H](n2ccc(=O)[nH]c2=O)[C@@H](C)[C@@H]1O [Compound I-32]	> 98.4 µM			
CCCCOC(=O)C(C)(C)NP(=O)(OC[C@@]1(N=[N+]=[N-])O[C@@H](n2ccc(=O)[nH]c2=O)[C@@H](C)[C@@H]1O)Oc1ccccc1 (stereo partly shown) [Compound I-13]	13.1 µM	88.5 µM		
CCCC(CCC)COC(=O)C(C)NP(=O)(OCC1(N=[N+]=[N-])OC(n2ccc(=O)[nH]c2=O)C(C)C1O)Oc1ccc(Cl)cc1 (mixture of isomers) [Compound I-15]			15.3 µM	> 100 µM
CCC(NP(=O)(O)OC[C@@]1(N=[N+]=[N-])O[C@@H](n2ccc(=O)[nH]c2=O)[C@@H](C)[C@@H]1O)C(=O)OC (stereo partly shown) [Compound I-29]	> 98.4 µM	> 98.4 µM		

SMILES	EC50 ([1]; Hepatitis C virus, Huh-7, 72 h)	CC50 [2]	EC50 [1]	CC50 (Huh-7)
CC(C)OC(=O)C(C)NP(=O)(OC[C@@]1(N=[N+]=[N-])O[C@@H](n2ccc(=O)[nH]c2=O)[C@@H](C)[C@@H]1O)Oc1ccccc1 (stereo partly shown) [Compound I-14]	14.9 µM	> 100 µM		
CC(NP(=O)(OCC1(N=[N+]=[N-])OC(n2ccc(=O)[nH]c2=O)C(C)C1O)Oc1cccc2ccccc12)C(=O)OCc1ccccc1 (mixture of isomers) [Compound I-11]			13.8 µM	> 100 µM
CCOC(=O)[C@H](C)NP(=O)(OC[C@@]1(N=[N+]=[N-])O[C@@H](n2ccc(=O)[nH]c2=O)[C@@H](C)[C@@H]1O)Oc1ccccc1 (single isomer, unassigned) [Compound I-17]			17.3 µM	> 98.3 µM
C[C@@H]1[C@H](n2cc(I)c(=O)[nH]c2=O)O[C@@](COP(=O)(N[C@@H](C)C(=O)OCc2ccccc2)Oc2ccccc2)(N=[N+]=[N-])[C@H]1O (stereo partly shown) [Compound I-25]	57.3 µM	> 98.3 µM		
CC(C)OC(=O)C(C)(C)NP(=O)(OC[C@@]1(N=[N+]=[N-])O[C@@H](n2ccc(=O)[nH]c2=O)[C@@H](C)[C@@H]1O)Oc1ccccc1 (stereo partly shown) [Compound I-28]	> 98.4 µM	> 98.4 µM		
CC(NP(=O)(OC[C@@]1(N=[N+]=[N-])O[C@@H](n2ccc(=O)[nH]c2=O)[C@@H](C)[C@@H]1O)Oc1ccccc1)C(=O)OC1CCCCC1 (stereo partly shown) [Compound I-7]	11.2 µM	> 98.3 µM		
CCCOC(=O)C(C)NP(=O)(O)OC[C@@]1(N=[N+]=[N-])O[C@@H](n2ccc(=O)[nH]c2=O)[C@@H](C)[C@@H]1O (stereo partly shown) [Compound I-30]	> 98.4 µM	> 98.4 µM		
CCC(NP(=O)(O)OC[C@@]1(N=[N+]=[N-])O[C@@H](n2ccc(=O)[nH]c2=O)[C@@H](C)[C@@H]1O)C(=O)OCc1ccccc1 (stereo partly shown) [Compound I-33]	> 98.4 µM			
CCC(NP(=O)(O)OC[C@@]1(N=[N+]=[N-])O[C@@H](n2ccc(=O)[nH]c2=O)[C@@H](C)[C@@H]1O)C(=O)OC(C)C (stereo partly shown) [Compound I-27]	> 98.4 µM			
COCCOC(=O)C(C)NP(=O)(OCC1(N=[N+]=[N-])OC(n2ccc(=O)[nH]c2=O)C(C)C1O)Oc1ccccc1 (mixture of isomers) [Compound I-23]			32.1 µM	> 98.3 µM
CCCC(CCC)COC(=O)[C@H](C)NP(=O)(O)OC[C@@]1(N=[N+]=[N-])O[C@@H](n2ccc(=O)[nH]c2=O)[C@@H](C)[C@@H]1O [Compound I-9]			15.8 µM	
CCCOC(=O)C(C)NP(=O)(OC[C@@]1(N=[N+]=[N-])O[C@@H](n2ccc(=O)[nH]c2=O)[C@@H](C)[C@@H]1O)Oc1ccccc1 (stereo partly shown) [Compound I-10]	12.9 µM	> 98.3 µM		
C[C@@H]1[C@H](n2ccc(=O)[nH]c2=O)O[C@@](COP(=O)(NC(C)(C)C(=O)OCc2ccccc2)Oc2ccccc2)(N=[N+]=[N-])[C@H]1O (stereo partly shown) [Compound I-12]	13.9 µM	> 100 µM		
CCC(NP(=O)(OC[C@@]1(N=[N+]=[N-])O[C@@H](n2ccc(=O)[nH]c2=O)[C@@H](C)[C@@H]1O)Oc1ccccc1)C(=O)OC(C)C (stereo partly shown) [Compound I-34]	> 98.4 µM	> 98.4 µM		
CC(NP(=O)(OC[C@@]1(N=[N+]=[N-])O[C@@H](n2ccc(=O)[nH]c2=O)[C@@H](C)[C@@H]1O)Oc1ccccc1)C(=O)OC(C)(C)C (stereo partly shown) [Compound I-31]	> 98.4 µM	> 98.4 µM		
